For 43 molecules, GI50 and TGI results are on record in PubChem BioAssay (NCI).

SMILES strings stand for the structures.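 1) Cells in 96-well plates. 2) Compound, 48 h, 5 concentrations. 3) Linear interpolation between surrounding doses. 4) Unreached endpoint = highest concentration. GI50 = concentration required for 50% inhibition of growth. TGI marks complete inhibition of growth.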 Bounds are passed on as bounds.

The test system of this assay is MDA-MB-468 breast. As to the kind of experiment: NCI-60 cell line screen, 48 h.
As to `Cc1ccc(-c2nc(C(Cl)Cl)nc3cc(-c4ccccc4)nn23)cc1`, the GI50 was 2940 nM.

Consider `Cc1cc(N(CCCl)CCCl)ccc1C=Nc1ccc(-c2csc(Cc3ccccc3)n2)cc1`, for which the GI50 is 160 nM and the TGI was found to be 2860 nM.

In the case of `COc1ccc2c(c1)cn1c3ccc(O)cc3nc(N)c21`, the GI50 is 747 nM and the TGI came to 4730 nM.

Turning to `OC(c1cc(-c2ccccc2)nc2ccc(Cl)cc12)C1CCCCN1` (centres undefined), the GI50 was 2010 nM and the TGI turned out to be 3860 nM.

Turning to `C=CCOc1cccc(/C=C2\SC(=Nc3ccc(O)cc3)NC2=O)c1`, the GI50 is 416 nM and the TGI turned out to be 4170 nM.

`Cn1cc(-c2ccc3occ(-c4cccc(-c5ccncc5)c4)c3n2)cn1`: the GI50 was 240 nM and the TGI turned out to be 941 nM.

For `O=C(O)/C=C\C(=O)N1C/C(=C\c2ccccc2Cl)C(=O)/C(=C/c2ccccc2Cl)C1`, the GI50 was 1540 nM and the TGI was 3460 nM.

On to `CN(C)CC(=O)Nc1ccc(Cn2nnc3c2C(=O)c2nnn(Cc4ccc(NC(=O)CN(C)C)cc4)c2C3=O)cc1`, for which the GI50 is 104 nM and the TGI was 258 nM.

Regarding `Oc1cccc2ccc(N/N=C/c3cc(CN4CCCCC4)c(O)c4ncccc34)nc12`, the GI50 was 40.1 nM and the TGI was determined as 533 nM.

On to `COc1cccc2c1c(C(=O)C(=O)Nc1cc(C)no1)cn2Cc1ccc(F)cc1`, for which the GI50 was 2420 nM and the TGI was found to be 17700 nM.

`CCc1nccc2c1nc(-c1nonc1N)n2CC`: the GI50 is above 25000 nM and the TGI was above 25000 nM.

Consider `COc1ccc(/C=C2\CCCC3=C2N=C2SC(C)=NN2C3c2ccc(OC)c(OC)c2)cc1OC` (centres undefined), for which the GI50 is 2610 nM and the TGI turned out to be 9090 nM.

For the molecule `CN1CCC(n2cnc(-c3ccc(F)cc3)c2-c2ccnc(NCCO)n2)CC1`, the GI50 was 10000 nM and the TGI was above 25000 nM.

Take `Cc1ccccc1[P+](Cc1ccccc1)(c1ccccc1)c1ccccc1`: the GI50 is 367 nM and the TGI turned out to be 4000 nM.

In the case of `CC#C[C@]1(O)CC[C@H]2[C@@H]3CCC4=CC(=O)CCC4=C3[C@@H](c3ccc4c(c3)OCO4)C[C@@]21C`, the GI50 was 101000 nM and the TGI was 559000 nM.

On to `CC[C@@H](C(=O)O)C1CC[C@H](C)C([C@@H](C)[C@H](O)[C@H](C)C(=O)[C@H](CC)C2O[C@]3(C=C[C@@H](O)[C@]4(CC[C@@](C)(C5CC[C@](O)(CC)[C@H](C)O5)O4)O3)[C@H](C)C[C@@H]2C)O1` (some centres undefined), for which the GI50 is 292 nM and the TGI was 4340 nM.

Regarding `O=c1cc(-c2ccccc2)[nH]c2ccccc12`, the GI50 is 481 nM.

On to `CC1(C)CC(=O)c2c(C(F)(F)F)nn(-c3ccc(C(N)=O)c(NC4CCC(OC(=O)CN)CC4)c3)c2C1` (centres undefined), for which the GI50 is 24.3 nM and the TGI stood at 68.3 nM.

For `COc1ccc(-c2csc(N(C(=O)N3CCN(c4cc5c(cc4F)c(=O)c(C(=O)O)cn5C4CC4)CC3)c3ccccc3)n2)cc1`, the GI50 was 2550 nM and the TGI turned out to be 8740 nM.

`Nc1nc2c(c3ncncc13)C(c1cccc(C(F)(F)F)c1)Cc1ncncc1-2` (centres undefined): the GI50 is 2780 nM and the TGI came to 8890 nM.

Regarding `COC(=O)[C@@]1(C)CC[C@]2(C)CC[C@]3(C)C4=CC=C5C(=CC(=O)C(O)=C5C)[C@]4(C)[C@@H](O)C[C@@]3(C)[C@@H]2C1`, the GI50 was 9710 nM and the TGI stood at 21900 nM.

Consider `COc1ccc2sc3c(NCCCN(C)C)nc4ccccc4c3c(=O)c2c1`, for which the GI50 is 1620 nM and the TGI stood at 3210 nM.

For `COc1cc(C2CC(c3ccc4c(c3)OCO4)=NN2C=O)cc(OC)c1OC` (centres undefined), the GI50 was 2050 nM and the TGI turned out to be 6810 nM.

Turning to `COc1cccc(-n2ncc3c(N/N=C/c4ccc(C(=O)NCCN(C)C)cc4)ncnc32)c1`, the GI50 was 853 nM and the TGI came to 5160 nM.

Regarding `O=C1c2cccnc2C(=O)c2nc3cc(N4CCN(C5CC5)CC4)ccc3nc21`, the GI50 was 1680 nM and the TGI was 4030 nM.

For `COc1ccc(-c2n/c(=C\c3c(O)[nH]c4ccc(OC)cc34)cc3c2=Nc2ccccc2-3)cc1`, the GI50 is 1560 nM and the TGI worked out at 3460 nM.

In the case of `N=C(N)c1ccc(-c2ccc(-c3cc(Cl)cc(Cl)c3)o2)nc1`, the GI50 was 1690 nM and the TGI was 3290 nM.

In the case of `CC1SC(c2ccccc2)N(CCc2cccs2)C1=O` (centres undefined), the GI50 is 2430 nM and the TGI is 8420 nM.

On to `COc1cc2c(c(OC)c1)C1c3ccccc3NC(=O)N1CC2` (centres undefined), for which the GI50 was 2550 nM and the TGI is 8570 nM.

For the molecule `CCCCC(CC)CN=C(N)NC(N)=NCCCCCCN=C(N)NC(N)=NCC(CC)CCCC` (centres undefined), the GI50 was 1270 nM and the TGI was 2730 nM.

In the case of `NCCOCCOCCNc1nc(Cc2ccccc2)nc(NCCCN2CCCC2=O)n1`, the GI50 is above 100000 nM and the TGI is above 100000 nM.

With `COc1ccc2nc(-c3ccc(-c4noc(-c5cc(OC)c(OC)c(OC)c5)n4)cc3)[nH]c2c1`, the GI50 was 6540 nM and the TGI is 26300 nM.

Consider `COC(=O)[C@H](C[C@H](Cc1ccccc1)NC(=O)c1csc([C@@H](C[C@H](C(C)C)N(C)C(=O)[C@@H](NC(=O)[C@H]2CCCCN2C)C(C)C)OC(C)=O)n1)NC(=O)OCc1ccccc1`, for which the GI50 was below 0.9 nM and the TGI is below 0.9 nM.

Turning to `CC(C)c1cc(-c2n[nH]c(=O)n2-c2ccc3c(ccn3C)c2)c(O)cc1O`, the GI50 is below 14.3 nM and the TGI was found to be 327 nM.

Turning to `COc1cc(/C=C/c2cc(O)c3cc(C(C)=O)c(=O)oc3c2)cc2c1O[C@]1(C)CC[C@@H](O)C(C)(C)[C@H]1C2`, the GI50 is 3870 nM and the TGI came out at 20500 nM.

Turning to `CCN(CC)CC(C)Nc1ccc([N+](=O)[O-])c2sc3ccccc3c(=O)c12` (centres undefined), the GI50 is 1810 nM and the TGI was 5790 nM.

Turning to `OC1CCN(CCCOc2c3ccc(Cl)cc3nc3c2oc2ccc(Cl)cc23)CC1`, the GI50 was 1820 nM and the TGI worked out at 7880 nM.

`O=C(NCCO)Nc1ccc(-c2nc(N3CCOCC3)c3cccn3n2)cc1`: the GI50 is 88.9 nM and the TGI came to 2350 nM.

With `COc1ccc(/C(=C2/O[C@@H]([C@H]3COC(C)(C)O3)[C@H]3OC(C)(C)O[C@@H]23)c2cc(OC)c(OC)c(OC)c2)cc1O`, the GI50 was 25600 nM and the TGI came out at 63600 nM.

As for `CC(C)C[C@H]1C(=O)O[C@H](C(C)C)C(=O)N(C)[C@@H](C(C)C)C(=O)O[C@H](C(C)C)C(=O)N(C)[C@@H](C(C)C)C(=O)O[C@H](C(C)C)C(=O)N1C`, the GI50 is 2010 nM and the TGI worked out at 9350 nM.

As for `CCCC(C)c1cc(Cc2cc(Cl)cc(Cl)c2O)c(O)c(Cc2cc(Cl)cc(Cl)c2O)c1` (centres undefined), the GI50 was 393 nM and the TGI is 5070 nM.

As to `COc1ccc(-c2c3c(N)nc(-c4ccncc4)nc3nc3c2c(C)nn3-c2ccccc2)cc1`, the GI50 was 7750 nM and the TGI was above 100000 nM.

For `O=C(CCCCCCC(=O)Nc1ccc(N(CCCl)CCCl)cc1)NO`, the GI50 was 232 nM and the TGI was found to be 1110 nM.
